Experimental findings from article PMC7048192, “7-Acylamino-3H-1,2-benzoxathiepine 2,2-dioxides as new isoform-selective carbonic anhydrase IX and XII inhibitors” (Journal of Enzyme Inhibition and Medicinal Chemistry, 2020) are described below.

T2 sequence (P00915 2-261): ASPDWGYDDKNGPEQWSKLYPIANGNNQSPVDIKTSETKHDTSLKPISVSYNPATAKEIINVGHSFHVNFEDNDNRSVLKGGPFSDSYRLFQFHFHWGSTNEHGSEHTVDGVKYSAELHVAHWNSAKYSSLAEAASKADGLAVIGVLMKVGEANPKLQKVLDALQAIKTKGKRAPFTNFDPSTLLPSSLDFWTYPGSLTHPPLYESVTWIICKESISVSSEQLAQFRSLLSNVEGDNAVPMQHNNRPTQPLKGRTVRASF
T4 sequence (O43570 25-354): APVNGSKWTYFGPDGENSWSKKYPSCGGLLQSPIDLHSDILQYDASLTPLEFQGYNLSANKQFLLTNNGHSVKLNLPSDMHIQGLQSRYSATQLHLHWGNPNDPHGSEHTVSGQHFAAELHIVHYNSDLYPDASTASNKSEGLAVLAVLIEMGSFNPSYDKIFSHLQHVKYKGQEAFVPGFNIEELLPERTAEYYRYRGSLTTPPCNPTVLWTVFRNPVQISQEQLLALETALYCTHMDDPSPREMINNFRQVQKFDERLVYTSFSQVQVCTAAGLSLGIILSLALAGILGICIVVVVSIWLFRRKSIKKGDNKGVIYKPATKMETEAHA

The target in the first test is T1, hCA II (Homo sapiens, UniProt P00918).
T1 construct: gene CA2; recombinant, obtained in-house
In words: stopped-flow CO2 hydrase assay. The class given is biochemical. As to conditions: read-out: KI (nM)^a,b / hCA I.
With `CC(=O)Nc1ccc2c(c1)C=CCS(=O)(=O)O2` [compound 8, N-(2,2-Dioxido-3H-1,2-benzoxathiepin-7-yl)acetamide], the Ki is above 100000 nM.

Take `O=C(Nc1ccc2c(c1)C=CCS(=O)(=O)O2)c1ccccc1` [compound 9, N-(2,2-Dioxido-3H-1,2-benzoxathiepin-7-yl)benzamide]: the Ki is above 100000 nM.

As to `Cc1ccc(C(=O)Nc2ccc3c(c2)C=CCS(=O)(=O)O3)cc1` [compound 10, N-(2,2-Dioxido-3H-1,2-benzoxathiepin-7-yl)-4-methy benzamide], the Ki is above 100000 nM.

As to `O=C(Nc1ccc2c(c1)C=CCS(=O)(=O)O2)c1ccc(Br)cc1` [compound 11, N-(2,2-Dioxido-3H-1,2-benzoxathiepin-7-yl)4-bromobenzamide], the Ki was above 100000 nM.

With `O=C(Nc1ccc2c(c1)C=CCS(=O)(=O)O2)c1ccccc1I` [compound 12, N-(2,2-Dioxido-3H-1,2-benzoxathiepin-7-yl)-2-iodobenzamide], the Ki is above 100000 nM.

Take `O=C(Nc1ccc2c(c1)C=CCS(=O)(=O)O2)c1ccccc1Br` [compound 13, N-(2,2-Dioxido-3H-1,2-benzoxathiepin-7-yl)-2-bromobenzamide]: the Ki was above 100000 nM.

For `O=C(Nc1ccc2c(c1)C=CCS(=O)(=O)O2)c1ccccc1F` [compound 14, N-(2,2-Dioxido-3H-1,2-benzoxathiepin-7-yl)-2-fluorobenzamide], the Ki is above 100000 nM.

`O=C(Nc1ccc2c(c1)C=CCS(=O)(=O)O2)c1ccccc1C(F)(F)F` [compound 15, N-(2,2-Dioxido-3H-1,2-benzoxathiepin-7-yl)-2-(trifluoromethyl)benzamide]: the Ki is above 100000 nM.

Turning to `O=C(Nc1ccc2c(c1)C=CCS(=O)(=O)O2)c1cccs1` [compound 16, N-(2,2-Dioxido-3H-1,2-benzoxathiepin-7-yl)thiophene-2-carboxamide], the Ki was above 100000 nM.

Consider `O=C(Nc1ccc2c(c1)C=CCS(=O)(=O)O2)c1ccco1` [compound 17, N-(2,2-Dioxido-3H-1,2-benzoxathiepin-7-yl)furan-2-carboxamide], for which the Ki is above 100000 nM.

A further test has as its target T2, hCA I (Homo sapiens, UniProt P00915).
T2 construct: gene CA1; recombinant, obtained in-house
In words: stopped-flow CO2 hydrase assay. The class given is biochemical. Conditions: read-out: KI (nM)^a,b / hCA I. The text has this:
stopped-flow CO2 hydrase assay on hCA I
As for `CC(=O)Nc1ccc2c(c1)C=CCS(=O)(=O)O2` [compound 8, N-(2,2-Dioxido-3H-1,2-benzoxathiepin-7-yl)acetamide], the Ki is above 100000 nM.

Take `O=C(Nc1ccc2c(c1)C=CCS(=O)(=O)O2)c1ccccc1` [compound 9, N-(2,2-Dioxido-3H-1,2-benzoxathiepin-7-yl)benzamide]: the Ki was above 100000 nM.

`Cc1ccc(C(=O)Nc2ccc3c(c2)C=CCS(=O)(=O)O3)cc1` [compound 10, N-(2,2-Dioxido-3H-1,2-benzoxathiepin-7-yl)-4-methy benzamide]: the Ki is above 100000 nM.

For `O=C(Nc1ccc2c(c1)C=CCS(=O)(=O)O2)c1ccc(Br)cc1` [compound 11, N-(2,2-Dioxido-3H-1,2-benzoxathiepin-7-yl)4-bromobenzamide], the Ki is above 100000 nM.

As to `O=C(Nc1ccc2c(c1)C=CCS(=O)(=O)O2)c1ccccc1I` [compound 12, N-(2,2-Dioxido-3H-1,2-benzoxathiepin-7-yl)-2-iodobenzamide], the Ki is above 100000 nM.

Take `O=C(Nc1ccc2c(c1)C=CCS(=O)(=O)O2)c1ccccc1Br` [compound 13, N-(2,2-Dioxido-3H-1,2-benzoxathiepin-7-yl)-2-bromobenzamide]: the Ki was above 100000 nM.

Consider `O=C(Nc1ccc2c(c1)C=CCS(=O)(=O)O2)c1ccccc1F` [compound 14, N-(2,2-Dioxido-3H-1,2-benzoxathiepin-7-yl)-2-fluorobenzamide], for which the Ki is above 100000 nM.

Consider `O=C(Nc1ccc2c(c1)C=CCS(=O)(=O)O2)c1ccccc1C(F)(F)F` [compound 15, N-(2,2-Dioxido-3H-1,2-benzoxathiepin-7-yl)-2-(trifluoromethyl)benzamide], for which the Ki was above 100000 nM.

With `O=C(Nc1ccc2c(c1)C=CCS(=O)(=O)O2)c1cccs1` [compound 16, N-(2,2-Dioxido-3H-1,2-benzoxathiepin-7-yl)thiophene-2-carboxamide], the Ki was above 100000 nM.

Take `O=C(Nc1ccc2c(c1)C=CCS(=O)(=O)O2)c1ccco1` [compound 17, N-(2,2-Dioxido-3H-1,2-benzoxathiepin-7-yl)furan-2-carboxamide]: the Ki was above 100000 nM.

Another test has as its target T3, hCA IX (Homo sapiens, UniProt Q16790).
T3 construct: gene CA9; recombinant, obtained in-house
In words: stopped-flow CO2 hydrase assay. The class given is biochemical. As to conditions: read-out: KI (nM)^a,b / hCA IX. From the text:
stopped-flow CO2 hydrase assay on hCA IX
Turning to `CC(=O)Nc1ccc2c(c1)C=CCS(=O)(=O)O2` [compound 8, N-(2,2-Dioxido-3H-1,2-benzoxathiepin-7-yl)acetamide], the Ki was 61.8 nM.

Take `O=C(Nc1ccc2c(c1)C=CCS(=O)(=O)O2)c1ccccc1` [compound 9, N-(2,2-Dioxido-3H-1,2-benzoxathiepin-7-yl)benzamide]: the Ki was determined as 209 nM.

`Cc1ccc(C(=O)Nc2ccc3c(c2)C=CCS(=O)(=O)O3)cc1` [compound 10, N-(2,2-Dioxido-3H-1,2-benzoxathiepin-7-yl)-4-methy benzamide]: the Ki stood at 83 nM.

With `O=C(Nc1ccc2c(c1)C=CCS(=O)(=O)O2)c1ccc(Br)cc1` [compound 11, N-(2,2-Dioxido-3H-1,2-benzoxathiepin-7-yl)4-bromobenzamide], the Ki turned out to be 353 nM.

With `O=C(Nc1ccc2c(c1)C=CCS(=O)(=O)O2)c1ccccc1I` [compound 12, N-(2,2-Dioxido-3H-1,2-benzoxathiepin-7-yl)-2-iodobenzamide], the Ki was 45.4 nM.

As for `O=C(Nc1ccc2c(c1)C=CCS(=O)(=O)O2)c1ccccc1Br` [compound 13, N-(2,2-Dioxido-3H-1,2-benzoxathiepin-7-yl)-2-bromobenzamide], the Ki amounted to 66.8 nM.

Regarding `O=C(Nc1ccc2c(c1)C=CCS(=O)(=O)O2)c1ccccc1F` [compound 14, N-(2,2-Dioxido-3H-1,2-benzoxathiepin-7-yl)-2-fluorobenzamide], the Ki worked out at 74.6 nM.

For the compound `O=C(Nc1ccc2c(c1)C=CCS(=O)(=O)O2)c1ccccc1C(F)(F)F` [compound 15, N-(2,2-Dioxido-3H-1,2-benzoxathiepin-7-yl)-2-(trifluoromethyl)benzamide], the Ki was determined as 19.7 nM.

In the case of `O=C(Nc1ccc2c(c1)C=CCS(=O)(=O)O2)c1cccs1` [compound 16, N-(2,2-Dioxido-3H-1,2-benzoxathiepin-7-yl)thiophene-2-carboxamide], the Ki was found to be 178 nM.

As to `O=C(Nc1ccc2c(c1)C=CCS(=O)(=O)O2)c1ccco1` [compound 17, N-(2,2-Dioxido-3H-1,2-benzoxathiepin-7-yl)furan-2-carboxamide], the Ki is 210 nM.

Another test addresses T4, hCA XII (Homo sapiens, UniProt O43570).
T4 construct: gene CA12; recombinant, obtained in-house
In words: stopped-flow CO2 hydrase assay. Conditions: read-out: KI (nM)^a,b / hCA XII. The class given is biochemical. The text has this: stopped-flow CO2 hydrase assay on hCA XII
With `CC(=O)Nc1ccc2c(c1)C=CCS(=O)(=O)O2` [compound 8, N-(2,2-Dioxido-3H-1,2-benzoxathiepin-7-yl)acetamide], the Ki was 162 nM.

Turning to `O=C(Nc1ccc2c(c1)C=CCS(=O)(=O)O2)c1ccccc1` [compound 9, N-(2,2-Dioxido-3H-1,2-benzoxathiepin-7-yl)benzamide], the Ki was 370 nM.

For `Cc1ccc(C(=O)Nc2ccc3c(c2)C=CCS(=O)(=O)O3)cc1` [compound 10, N-(2,2-Dioxido-3H-1,2-benzoxathiepin-7-yl)-4-methy benzamide], the Ki is 309 nM.

As for `O=C(Nc1ccc2c(c1)C=CCS(=O)(=O)O2)c1ccc(Br)cc1` [compound 11, N-(2,2-Dioxido-3H-1,2-benzoxathiepin-7-yl)4-bromobenzamide], the Ki came out at 141 nM.

Take `O=C(Nc1ccc2c(c1)C=CCS(=O)(=O)O2)c1ccccc1I` [compound 12, N-(2,2-Dioxido-3H-1,2-benzoxathiepin-7-yl)-2-iodobenzamide]: the Ki was 644 nM.

On to `O=C(Nc1ccc2c(c1)C=CCS(=O)(=O)O2)c1ccccc1Br` [compound 13, N-(2,2-Dioxido-3H-1,2-benzoxathiepin-7-yl)-2-bromobenzamide], for which the Ki turned out to be 96.2 nM.

With `O=C(Nc1ccc2c(c1)C=CCS(=O)(=O)O2)c1ccccc1F` [compound 14, N-(2,2-Dioxido-3H-1,2-benzoxathiepin-7-yl)-2-fluorobenzamide], the Ki worked out at 40.3 nM.

With `O=C(Nc1ccc2c(c1)C=CCS(=O)(=O)O2)c1ccccc1C(F)(F)F` [compound 15, N-(2,2-Dioxido-3H-1,2-benzoxathiepin-7-yl)-2-(trifluoromethyl)benzamide], the Ki is 8.7 nM.

With `O=C(Nc1ccc2c(c1)C=CCS(=O)(=O)O2)c1cccs1` [compound 16, N-(2,2-Dioxido-3H-1,2-benzoxathiepin-7-yl)thiophene-2-carboxamide], the Ki came to 73.2 nM.

As for `O=C(Nc1ccc2c(c1)C=CCS(=O)(=O)O2)c1ccco1` [compound 17, N-(2,2-Dioxido-3H-1,2-benzoxathiepin-7-yl)furan-2-carboxamide], the Ki was determined as 134 nM.
